Results on one substance are retold here after patent US9949917B2, “Cosmetic composition comprising a combination of a sugar fatty acid ester with a plant extract of Waltheria indica or Pisum sativum for skin whitening” (Cognis IP Management GmbH, priority 2006, dated 2018).

Experiment [1] addresses T1, Tyrosinase in B16 melanocytes (Mus musculus, UniProt P11344).
T1 construct: endogenous in cells; host or cells: B16 melanocytes (cell line)
T1 sequence (P11344 19-533): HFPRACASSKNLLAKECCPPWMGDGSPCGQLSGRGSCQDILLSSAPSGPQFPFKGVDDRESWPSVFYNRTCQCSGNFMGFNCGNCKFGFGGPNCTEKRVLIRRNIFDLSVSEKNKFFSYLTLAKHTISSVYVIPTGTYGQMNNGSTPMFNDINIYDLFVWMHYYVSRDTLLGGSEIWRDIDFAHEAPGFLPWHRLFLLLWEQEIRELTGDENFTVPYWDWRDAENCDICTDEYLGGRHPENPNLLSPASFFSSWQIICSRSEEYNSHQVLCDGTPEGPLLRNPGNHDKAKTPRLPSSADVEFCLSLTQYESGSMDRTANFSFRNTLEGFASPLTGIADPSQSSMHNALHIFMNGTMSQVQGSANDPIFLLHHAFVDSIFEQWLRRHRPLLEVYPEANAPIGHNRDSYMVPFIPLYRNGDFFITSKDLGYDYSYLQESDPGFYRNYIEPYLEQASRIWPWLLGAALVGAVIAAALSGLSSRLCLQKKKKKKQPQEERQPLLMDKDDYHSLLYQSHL
Briefly: Tyrosinase activity on melanocytes (DL-DOPA, optical density at 475 nm). In kind it is cell-based. From the text: Melanocytes (B16 cell line) were inoculated in standard medium of cell culture with foetal calf serum (FCS). […] Combinations of ingredients have been tested on the same cultures, in parallel with ingredients alone. […] The optical density at 475 nm is expressed as a % against control and presented as a mean+/−SEM (standard error of mean) of triplicates.

Experiment [2] concerns Melanocytes (B16 cell line). Nature of the experiment: Melanogenesis inhibition assay: level of melanin (optical density at 475 nm). Type of experiment: cell-based.
Procedure: Melanocytes (B16 cell line) were inoculated in standard medium of cell culture with foetal calf serum (FCS). After an incubation for 3 days at 37° C. and CO2=5%, growth medium was exchanged for standard medium with a range of concentrations for each ingredient to be tested and a control without ingredient. After an incubation of 3 days, the level of melanin is measured by recording the optical density at 475 nm. After washing the cells by a balanced salt, and homogenisation in a solution of 0.1 M NaOH, the number of viable cells is determined by evaluation of the level of cellular proteins (Bradford's method).
Combinations of ingredients have been tested on the same cell cultures, in parallel with the ingredients alone. The results are expressed in % against control (cell culture medium without ingredient) as a mean+/−SEM (Standard Error of Mean) on 2 or 3 assays, each in triplicate.
Where [3] appears, read: sucrose laurate 0.0003% (w/v) alone, 3 assays.

“Sucrose laurate [Sucrose laurate of example 5]”: the “effect on tyrosinase activity in melanocytes (in words)” value in experiment [1] (Tables 7 and 8) was “decreases the tyrosinase activity”. Also, the entries for the “Tyrosinase activity in %/control” value in experiment [1] (sucrose laurate 0.005% (w/v) alone) and in experiment [1] (sucrose laurate 0.01% (w/v) alone) were 75 +/− 6 %/control and 64 +/− 7 %/control, respectively. Besides, the “Rate of melanin in %/control” value was 56 +/− 18 %/control in experiment [2] (setting [3]); 56+/−18 %/control in experiment [2] (sucrose laurate 0.0003% (w/v) alone, 3 assays, listed as sucrose laurate); 56 +/− 7 %/control in experiment [2] (sucrose laurate 0.001% (w/v) alone, 2 assays (Table 5)); 54 +/− 16 %/control in experiment [2] (sucrose laurate 0.001% (w/v) alone, 3 assays (Table 2)); 54+/−16 %/control in experiment [2] (sucrose laurate 0.001% (w/v) alone, 3 assays (Table 2), listed as sucrose laurate). The “Ratio of rate of cellular proteins on rate of melanin” value in experiment [2] (setting [3]) turned out to be 1.8; in experiment [2] (sucrose laurate 0.001% (w/v) alone, 2 assays (Table 6)) it was 1.6; in experiment [2] (sucrose laurate 0.001% (w/v) alone, 3 assays (Table 3)) it was 1.8.
